Laboratory results from publication PMC12598616, “Design and optimization of caspase-1-responsive fluorescent probes for pyroptosis imaging and anti-pyroptosis drug screening” (Chemical Science, 2025).

What was measured:
caspase-3 = assay: Selectivity of probes: caspase-3; format: biochemical, human; settings: caspase-3 1 μg/mL, 37 °C, 2 h, λex 510 nm, λem 585 nm
Excerpt: (§1) The resin used for SPPS was purchased from GL Biochem (Shanghai, China). Lipopolysaccharide (LPS, L2630), Nigericin and ATP (11140965001) were purchased from Merck (Shanghai, China) and Invitrogen (Shanghai, China), respectively. Cell culture plates were sourced from Wuxi NEST Biotechnology. Recombinant human caspase-1, caspase-3, caspase-4, and caspase-8 were obtained from Abcam and MCE (Shanghai, China). Anti-cleaved caspase-1 antibody, anti-GAPDH antibody, and goat anti-Rabbit/anti-mouse lgG/HRP were purchased from CST (USA) and Beyotime […]
(§2) (Shanghai, China). […]
(§3) Medical College (ethical approval number ZJCLA-IACUC-20011003). […]
(§4) To investigate the sensitivity of the probes for caspase-1, varying concentration of caspase-1 (0, 0.2, 0.4, 0.6, 0.8, 1.0, 1.25, 1.5, 1.75, 2, 2.5, 3 U/mL) were incubated with FPy1 (5 μM), YPy1 (5 μM) and WPy1 (5 μM) respectively in caspase-1 assay buffer (50 mM HEPES, 50 mM NaCl, 0.1 % chaps, 5 % glycerol, 10 mM DTT, 10 mM EDTA) at 37 °C for 2 hours. Fluorescence spectra were recorded using Hitachi F-2700 spectrophotometer with an excitation at 510 nm (Photomultiplier voltage 700 V; Slit widths ex: 10 nm and em =5.0 nm). […] The limit of detection (LoD) was calculated from 3σ/k, in which σ represents the standard deviation of 15 blank measurements. […]
(§5) 10 nm and em =5.0 nm). The fluorescence intensity of FPy1, YPy1 and WPy1 at 585 nm were plotted separately against […]

caspase-4 = assay: Selectivity of probes: caspase-4; format: biochemical, human; settings: caspase-4 2 U/mL, 37 °C, 2 h, λex 510 nm, λem 585 nm
Excerpt: as §1, §2, §3, §4, §5

| Substance | fluorescence response to caspase-3 (caspase-3) | fluorescence response to caspase-4 (caspase-4) |
| --- | --- | --- |
| –FLTDG– [FPy1, RhoB donor, hNR quencher] | almost no response | almost no response |
| –YVADG– [YPy1, caspase-1-responsive FRET probe with recognition peptide –YVADG–; RhoB donor, hNR quencher] | almost no response | almost no response |
